Experimental data published in publication PMC9268153 (2022).

Tests used:
[1] = test system: Telomere G1 (Telomere G4) (DNA, G4) TAGGGTTAGGGTTAGGGTTAGGG; experiment: ITC; conditions: 50 mM potassium phosphate (K+), 50 mM KH2PO4-K2HPO4 pH 7.0, 25 °C; for binding: n.d. (not detected), titrant up to 100 μM
[2] = test system: G1-r12nt (RNA, G4) UAGGGUUAGGGU; experiment: CD melting; conditions: 100 mM KCl; 50 mM KH2PO4-K2HPO4 pH 7.0; 4.5 μM compound, 1.5 μM nucleic acid
[3] = test system: c-myc AP sites (DNA, G4, abasic (d-spacer) at 7 and 16) TGAGGGNGGGGAGGGNGGGGAA; experiment: ITC; conditions: 50 mM potassium phosphate (K+); 50 mM KH2PO4-K2HPO4 pH 7.0, 25 °C
[4] = test system: G1-r23nt (RNA, G4) UAGGGUUAGGGUUAGGGUUAGGG; experiment: CD melting; conditions: 5 mM KCl; 50 mM Tris-HCl pH 7.4; 4.5 μM compound, 1.5 μM nucleic acid
[5] = test system: Telomere G1 (Telomere G4) (DNA, G4) TAGGGTTAGGGTTAGGGTTAGGG; experiment: UV-Vis titration, Scatchard; conditions: 100 mM KCl; 50 mM Tris-HCl pH 7.4, 25 °C
[6] = test system: Telomere G1 (Telomere G4) (DNA, G4) TAGGGTTAGGGTTAGGGTTAGGG; experiment: CD melting; conditions: 100 mM KCl; 50 mM Tris-HCl pH 7.4; 4.5 μM compound, 1.5 μM nucleic acid
[7] = test system: ds-oligo (DNA, duplex) GGGAGGTTTCGC/GCGAAACCTCCC; experiment: UV-Vis titration, Scatchard; conditions: 100 mM KCl; 50 mM Tris-HCl pH 7.4, 25 °C
[8] = test system: c-kit (DNA, G4) AGGGAGGGCGCTGGGAGGAGGG; experiment: CD spectral change; conditions: 100 mM KCl; 50 mM Tris-HCl pH 7.4, 25 °C; 1.5 μM DNA, up to 4.5 μM compound
[9] = test system: ds-oligo (DNA, duplex) GGGAGGTTTCGC/GCGAAACCTCCC; experiment: ITC; conditions: 50 mM potassium phosphate (K+); 50 mM KH2PO4-K2HPO4 pH 7.0, 25 °C; undetectable
[10] = test system: G1-r23nt (RNA, G4) UAGGGUUAGGGUUAGGGUUAGGG; experiment: ITC; conditions: 50 mM potassium phosphate (K+); 50 mM KH2PO4-K2HPO4 pH 7.0, 25 °C
[11] = test system: G1-r12nt (RNA, G4) UAGGGUUAGGGU; experiment: ITC; conditions: 50 mM potassium phosphate (K+); 50 mM KH2PO4-K2HPO4 pH 7.0, 25 °C

CN(C)CCCN1C(=O)c2ccc3c4c(ccc(c24)C1=O)C(=O)N(CCCN(C)C)C3=O
Ka [1]: 9.5 ± 0.6 × 10^5 M^-1 | ΔTm [2]: 6.1 ± 0.4 °C | Ka [3]: 2.9 ± 0.2 × 10^5 M^-1 | ΔTm [4]: 19.9 ± 0.1 °C | Ka [5]: 9.5 ± 0.9 × 10^5 M^-1 | ΔTm [6]: 5.1 ± 1.1 °C | Ka [7]: 3.9 ± 0.1 × 10^5 M^-1 | binding [8]: yes

CN(CCCN1C(=O)c2ccc3c4c(ccc(c24)C1=O)C(=O)N(CCCN(C)C[C@H]1O[C@@H]2O[C@H]4[C@H](O)[C@@H](O)[C@@H](O[C@H]5[C@H](O)[C@@H](O)[C@@H](O[C@H]6[C@H](O)[C@@H](O)[C@@H](O[C@H]7[C@H](O)[C@@H](O)[C@@H](O[C@H]8[C@H](O)[C@@H](O)[C@@H](O[C@H]9[C@H](O)[C@@H](O)[C@@H](O[C@H]1[C@H](O)[C@H]2O)O[C@@H]9CO)O[C@@H]8CO)O[C@@H]7CO)O[C@@H]6CO)O[C@@H]5CO)O[C@@H]4CO)C3=O)C[C@H]1O[C@@H]2O[C@H]3[C@H](O)[C@@H](O)[C@@H](O[C@H]4[C@H](O)[C@@H](O)[C@@H](O[C@H]5[C@H](O)[C@@H](O)[C@@H](O[C@H]6[C@H](O)[C@@H](O)[C@@H](O[C@H]7[C@H](O)[C@@H](O)[C@@H](O[C@H]8[C@H](O)[C@@H](O)[C@@H](O[C@H]1[C@H](O)[C@H]2O)O[C@@H]8CO)O[C@@H]7CO)O[C@@H]6CO)O[C@@H]5CO)O[C@@H]4CO)O[C@@H]3CO
binding [1]: no | ΔTm [2]: 2.1 ± 0.9 °C | Ka [3]: 2.2 ± 0.3 × 10^5 M^-1 | binding [9]: no | ΔTm [4]: 10.3 ± 0.3 °C | Ka [10]: 19.0 ± 2.2 × 10^5 M^-1 | ΔTm [6]: < 0.5 °C | binding [11]: yes

O=C(CN1C(=O)c2ccc3c4c(ccc(c24)C1=O)C(=O)N(CC(=O)NCCNC[C@H]1O[C@@H]2O[C@H]4[C@H](O)[C@@H](O)[C@@H](O[C@H]5[C@H](O)[C@@H](O)[C@@H](O[C@H]6[C@H](O)[C@@H](O)[C@@H](O[C@H]7[C@H](O)[C@@H](O)[C@@H](O[C@H]8[C@H](O)[C@@H](O)[C@@H](O[C@H]9[C@H](O)[C@@H](O)[C@@H](O[C@H]1[C@H](O)[C@H]2O)O[C@@H]9CO)O[C@@H]8CO)O[C@@H]7CO)O[C@@H]6CO)O[C@@H]5CO)O[C@@H]4CO)C3=O)NCCNC[C@H]1O[C@@H]2O[C@H]3[C@H](O)[C@@H](O)[C@@H](O[C@H]4[C@H](O)[C@@H](O)[C@@H](O[C@H]5[C@H](O)[C@@H](O)[C@@H](O[C@H]6[C@H](O)[C@@H](O)[C@@H](O[C@H]7[C@H](O)[C@@H](O)[C@@H](O[C@H]8[C@H](O)[C@@H](O)[C@@H](O[C@H]1[C@H](O)[C@H]2O)O[C@@H]8CO)O[C@@H]7CO)O[C@@H]6CO)O[C@@H]5CO)O[C@@H]4CO)O[C@@H]3CO
binding [1]: no | ΔTm [2]: < 0.5 °C | Ka [3]: 2.0 ± 0.8 × 10^5 M^-1 | binding [9]: no | ΔTm [4]: 10.6 ± 0.6 °C | Ka [10]: 12.3 ± 2.2 × 10^5 M^-1 | ΔTm [6]: < 0.5 °C | binding [11]: yes
